For 20 compounds, Activity and IC50 results are on record in ChEMBL document CHEMBL6087474, “Discovery of an Efficacious RET PROTAC Degrader with Enhanced Antiproliferative Activity against Resistant Cancer Cells Harboring RET Solvent-Front Mutations” (J Med Chem, 2025).

Test [1] relates to BaF3. The test is described as follows: PROTAC activity at VHL/KIF5B-RET (unknown origin) expressed in mouse BaF3 cells assessed as induction of RET degradation at 1000 nM measured after 6 hrs by Western blot analysis relative to control. The test is classed as cell-based. A general note: In western blotting, separated proteins are transferred to a membrane and probed.
For test [2], the system named is BaF3. The test is described as follows: PROTAC activity at VHL/KIF5B-RET (unknown origin) expressed in mouse BaF3 cells assessed as induction of RET degradation at 100 nM measured after 6 hrs by Western blot analysis relative to control. Format: cell-based.
Test [3] has as its system BaF3. The test is described as follows: PROTAC activity at VHL/KIF5B-RET (unknown origin) expressed in mouse BaF3 cells assessed as induction of RET degradation at 10 nM measured after 6 hrs by Western blot analysis relative to control. The test is classed as cell-based.
Test [4] concerns BaF3. The test can be described thus: PROTAC activity at CRBN/KIF5B-RET (unknown origin) expressed in mouse BaF3 cells assessed as induction of RET degradation at 1000 nM measured after 6 hrs by Western blot analysis relative to control. The test is classed as cell-based.
Test [5] concerns BaF3. The test is described as follows: PROTAC activity at CRBN/KIF5B-RET (unknown origin) expressed in mouse BaF3 cells assessed as induction of RET degradation at 10 nM measured after 6 hrs by Western blot analysis relative to control. The test is classed as cell-based.
Test [6] deals with BaF3. The test can be described thus: PROTAC activity at CRBN/KIF5B-RET (unknown origin) expressed in mouse BaF3 cells assessed as induction of RET degradation at 100 nM measured after 6 hrs by Western blot analysis relative to control. The test is classed as cell-based.
For test [7], the system named is BaF3. The test can be described thus: Antiproliferative activity against mouse BaF3 cells stably expressing KIF5B-RET fusion protein incubated for 72 hrs by CCK-8 assay. Format: functional, cell-based. The note with it: BaF3, 72 h.
In test [8] the test system is BaF3. The test can be described thus: Antiproliferative activity against mouse BaF3 cells stably expressing KIF5B-RET-V804L mutant incubated for 72 hrs by CCK-8 assay. The test is classed as functional, cell-based. Conditions: BaF3, 72 h. A general note: Formazan colour is commonly taken as a measure of viable cells.
In test [9] the test system is BaF3. The test can be described thus: Antiproliferative activity against mouse BaF3 cells stably expressing KIF5B-RET-G810S mutant incubated for 72 hrs by CCK-8 assay. Conditions: BaF3, 72 h. The test is classed as functional, cell-based.
Test [10] concerns BaF3. The test can be described thus: Antiproliferative activity against mouse BaF3 cells stably expressing KIF5B-RET-V804M mutant incubated for 72 hrs by CCK-8 assay. Format: functional, cell-based. Conditions: BaF3, 72 h.
Test [11] relates to BaF3. The test is described as follows: Antiproliferative activity against mouse BaF3 cells stably expressing KIF5B-RET-G810C mutant incubated for 72 hrs by CCK-8 assay. Format: functional, cell-based. The note with it: BaF3, 72 h.
Test [12] deals with BaF3. The test is described as follows: Antiproliferative activity against mouse BaF3 cells stably expressing CCDC6-RET incubated for 72 hrs by CCK-8 assay. Conditions: BaF3, 72 h. Format: functional, cell-based.
Test [13] has as its system BaF3. The test can be described thus: Antiproliferative activity against mouse BaF3 cells stably expressing CCDC6-RET-G810C mutant incubated for 72 hrs by CCK-8 assay. The test is classed as functional, cell-based. Conditions: BaF3, 72 h.
Test [14] has as its system BaF3. The test can be described thus: Antiproliferative activity against mouse BaF3 cells stably expressing CCDC6-RET-V804M mutant incubated for 72 hrs by CCK-8 assay. The test is classed as functional, cell-based. Conditions: BaF3, 72 h.
Test [15] has as its system BaF3. The test can be described thus: Antiproliferative activity against mouse BaF3 cells stably expressing KIF5B-RET-G810R mutant incubated for 72 hrs by CCK-8 assay. The test is classed as functional, cell-based. Conditions: BaF3, 72 h.

For `COc1ccc(CN2C3CC2CN(c2ccc(-c4cc(-c5cnn(CCCCCCCCCCCCCCC(=O)N[C@H](C(=O)N6C[C@H](O)C[C@H]6C(=O)N[C@@H](C)c6ccc(-c7scnc7C)cc6)C(C)(C)C)c5)cn5ncc(C#N)c45)cn2)C3)cn1`, the Activity in the test on BaF3 [1] is 20%; in the test on BaF3 [2] it was 3%; in the test on BaF3 [3], -6%.

Regarding `COc1ccc(CN2C3CC2CN(c2ccc(-c4cc(-c5cnn(C6CCN(CCCC#Cc7cccc8c7CN(C7CCC(=O)NC7=O)C8=O)CC6)c5)cn5ncc(C#N)c45)cn2)C3)cn1` (centres undefined), the Activity in the test on BaF3 [4] amounted to 51%; with BaF3 [5], 19%; with BaF3 [6], 35%.

`COc1ccc(CN2C3CC2CN(c2ccc(-c4cc(-c5cnn(C6CCN(CCCCCC#Cc7cccc8c7CN(C7CCC(=O)N(C)C7=O)C8=O)CC6)c5)cn5ncc(C#N)c45)cn2)C3)cn1` (centres undefined): the IC50 (usually the midpoint of a concentration-inhibition curve) in the test on BaF3 [7] is 20 nM; in the test with BaF3 [8] it was 50 nM; in the test with BaF3 [9], 240 nM; in the test with BaF3 [10], 70 nM; with BaF3 [11], 700 nM; in the test with BaF3 [12], 10 nM. The IC50 is 100 nM in the test with BaF3 [13], 20 nM in the test with BaF3 [14] and 1690 nM in the test on BaF3 [15].

As to `COc1ccc(CN2C3CC2CN(c2ccc(-c4cc(-c5cnn(C6CCN(CCCCC#Cc7cccc8c7CN(C7CCC(=O)NC7=O)C8=O)CC6)c5)cn5ncc(C#N)c45)cn2)C3)cn1` (centres undefined), the figures for the Activity in the test on BaF3 [4], in the test on BaF3 [5] and with BaF3 [6] were 48%, 16% and 42%, respectively.

Consider `COc1ccc(CN2C3CC2CN(c2ccc(-c4cc(-c5cnn(CCC#Cc6cccc7c6CN(C6CCC(=O)NC6=O)C7=O)c5)cn5ncc(C#N)c45)cn2)C3)cn1` (centres undefined), for which the Activity was 25% with BaF3 [4], 15% in the test on BaF3 [5] and 26% in the test with BaF3 [6].

For `COc1ccc(CN2C3CC2CN(c2ccc(-c4cc(-c5cnn(CCCCC(=O)N[C@H](C(=O)N6C[C@H](O)C[C@H]6C(=O)N[C@@H](C)c6ccc(-c7scnc7C)cc6)C(C)(C)C)c5)cn5ncc(C#N)c45)cn2)C3)cn1`, the Activity was -11% in the test with BaF3 [1], -11% in the test with BaF3 [2] and -14% with BaF3 [3].

On to `COc1ccc(CN2C3CC2CN(c2ccc(-c4cc(-c5cnn(C6CCN(CCCCCCCC#Cc7cccc8c7CN(C7CCC(=O)NC7=O)C8=O)CC6)c5)cn5ncc(C#N)c45)cn2)C3)cn1` (centres undefined), for which the figures for the Activity in the test with BaF3 [4], in the test with BaF3 [5] and in the test with BaF3 [6] were 30%, 12% and 16%, respectively.

Consider `COc1ccc(CN2C3CC2CN(c2ccc(-c4cc(-c5cnn(C6CCN(CC#Cc7cccc8c7CN(C7CCC(=O)NC7=O)C8=O)CC6)c5)cn5ncc(C#N)c45)cn2)C3)cn1` (centres undefined), for which the Activity came out at 14% with BaF3 [4], 9% in the test with BaF3 [5] and 7% in the test on BaF3 [6].

As to `COc1ccc(CN2C3CC2CN(c2ccc(-c4cc(-c5cnn(CCCCC#Cc6cccc7c6CN(C6CCC(=O)NC6=O)C7=O)c5)cn5ncc(C#N)c45)cn2)C3)cn1` (centres undefined), the Activity was 21% with BaF3 [4], 19% with BaF3 [5] and 23% in the test with BaF3 [6].

Take `COc1ccc(CN2C3CC2CN(c2ccc(-c4cc(-c5cnn(CCCCCCCCC#Cc6cccc7c6CN(C6CCC(=O)NC6=O)C7=O)c5)cn5ncc(C#N)c45)cn2)C3)cn1` (centres undefined): the Activity in the test on BaF3 [4] stood at 34%; in the test with BaF3 [5], 17%; in the test with BaF3 [6] it was 47%.

With `COc1ccc(CN2C3CC2CN(c2ccc(-c4cc(-c5cnn(CCOCCOCCC(=O)N[C@H](C(=O)N6C[C@H](O)C[C@H]6C(=O)N[C@@H](C)c6ccc(-c7scnc7C)cc6)C(C)(C)C)c5)cn5ncc(C#N)c45)cn2)C3)cn1`, the figures for the Activity in the test with BaF3 [1], in the test on BaF3 [2] and in the test on BaF3 [3] were -5%, 1% and 8%, respectively.

Regarding `COc1ccc(CN2C3CC2CN(c2ccc(-c4cc(-c5cnn(CCCCCCCCCCC#Cc6cccc7c6CN(C6CCC(=O)NC6=O)C7=O)c5)cn5ncc(C#N)c45)cn2)C3)cn1` (centres undefined), the Activity in the test on BaF3 [4] was 54%; with BaF3 [5], 15%; in the test on BaF3 [6] it was 39%.

Turning to `COc1ccc(CN2C3CC2CN(c2ccc(-c4cc(OCC(C)(C)O)cn5ncc(C#N)c45)cn2)C3)cn1` [SELPERCATINIB], the half-inhibitory concentration (IC50) with BaF3 [8] worked out at 30 nM; with BaF3 [9], 570 nM; in the test on BaF3 [11], 690 nM; in the test with BaF3 [13], 350 nM; with BaF3 [14], 50 nM; with BaF3 [15], 1060 nM.

Take `COc1ccc(CN2C3CC2CN(c2ccc(-c4cc(-c5cnn(CCCCCCCCC(=O)N[C@H](C(=O)N6C[C@H](O)C[C@H]6C(=O)N[C@@H](C)c6ccc(-c7scnc7C)cc6)C(C)(C)C)c5)cn5ncc(C#N)c45)cn2)C3)cn1`: the Activity worked out at 39% in the test with BaF3 [1], 34% in the test with BaF3 [2] and 1% in the test on BaF3 [3].

For `COc1ccc(CN2C3CC2CN(c2ccc(-c4cc(-c5cnn(CCCCCCC#Cc6cccc7c6CN(C6CCC(=O)NC6=O)C7=O)c5)cn5ncc(C#N)c45)cn2)C3)cn1` (centres undefined), the Activity worked out at 22% in the test on BaF3 [4], 27% in the test on BaF3 [5] and 31% with BaF3 [6].

As for `COc1ccc(CN2C3CC2CN(c2ccc(-c4cc(-c5cnn(C6CCN(C(=O)CN7CCN(c8ccc9c(c8)C(=O)N(C8CCC(=O)NC8=O)C9=O)CC7)CC6)c5)cn5ncc(C#N)c45)cn2)C3)cn1` (centres undefined), the results for the Activity with BaF3 [4], in the test with BaF3 [5] and with BaF3 [6] were 41%, 37% and 49%, respectively.

As for `COc1ccc(CN2C3CC2CN(c2ccc(-c4cc(-c5cnn(CCCCCCCCCCC(=O)N[C@H](C(=O)N6C[C@H](O)C[C@H]6C(=O)N[C@@H](C)c6ccc(-c7scnc7C)cc6)C(C)(C)C)c5)cn5ncc(C#N)c45)cn2)C3)cn1`, the Activity is 32% in the test on BaF3 [1], 39% in the test on BaF3 [2] and 17% in the test on BaF3 [3].

On to `COc1ccc(CN2C3CC2CN(c2ccc(-c4cc(-c5cnn(C6CCN(CC(=O)N7CCN(c8ccc9c(c8)C(=O)N(C8CCC(=O)NC8=O)C9=O)CC7)CC6)c5)cn5ncc(C#N)c45)cn2)C3)cn1` (centres undefined), for which the Activity in the test with BaF3 [4] came out at 32%; with BaF3 [5], 30%; in the test with BaF3 [6], 34%.

As to `COc1ccc(CN2C3CC2CN(c2ccc(-c4cc(-c5cnn(C6CCN(CCCCCCC#Cc7cccc8c7CN(C7CCC(=O)NC7=O)C8=O)CC6)c5)cn5ncc(C#N)c45)cn2)C3)cn1` (centres undefined), the Activity with BaF3 [4] amounted to 47%; in the test on BaF3 [5], 35%; in the test on BaF3 [6] it was 46%.

In the case of `COc1ccc(CN2C3CC2CN(c2ccc(-c4cc(-c5cnn(CCCCCCC(=O)N[C@H](C(=O)N6C[C@H](O)C[C@H]6C(=O)N[C@@H](C)c6ccc(-c7scnc7C)cc6)C(C)(C)C)c5)cn5ncc(C#N)c45)cn2)C3)cn1`, the results for the Activity with BaF3 [1], in the test on BaF3 [2] and in the test on BaF3 [3] were 51%, 49% and 16%, respectively.
